{
  "source": "patent EP4710775A1",
  "about": "“COMPOSITION FOR PROMOTING CHILD DEVELOPMENT” (Meiji Holdings Co., Ltd., priority 2023, dated 2024)",
  "assay_type_in_all_cases": "in vivo, mouse (C57BL/6J)",
  "key": {"[1]": {"test": "Measurement of grip strength (forelimb) after weaning in mice given NMN in infancy", "conditions": "three weeks after weaning; males and females combined, n = 20 per group; corrected by body weight; NMN orally gavaged days 3 to 21 after birth (500 mg/kg BW from day 14); vs control group, p < 0.05", "description": "(§1) β-Nicotinamide mononucleotide (NMN) to be administered to mice was dissolved at a concentration of 100 mg/mL in distilled water and then used for administration.\n(§2) Ten female C57BL/6J lines at day 13 of gestation were purchased. The mice were individually raised in a breeding room at a room temperature of 22 ± 2°C, humidity of 55 ± 15%, light period of 7:00 to 19:00, and dark period of 19:00 to 7:00 until the birth of the pups, and after the birth, group breeding was performed with the pups until weaning, and the born mouse pups were used for the test. […]\n(§3) The body weights of all the mouse pups were measured on the day of weaning, and the pups were divided into a total of four groups: a control group and an NMN group for males and a control group and an NMN group also for females (n = 10 for each group), so that the average values of the body weights were equal. […]\nThree weeks after weaning, the grip strength (forelimb only) of all the individuals was measured using Grip Strength Meter for Rats & Mice (MK-380CM/F, manufactured by Muromachi Kikai Co., Ltd.). The measurement was performed 10 times per individual, and the maximum value was recorded. […]"}, "[2]": {"test": "Measurement of plasma triglyceride concentration after weaning (Triglyceride E-test Wako)", "conditions": "two weeks after weaning, males only, NMN n = 5, control n = 7, NMN orally days 3 to 21 after birth, vs control group", "description": "as §1\n(§4) Ten female C57BL/6J lines at day 13 of gestation were purchased. The mice were individually raised in a breeding room at a room temperature of 22 ± 2°C, humidity of 55 ± 15%, light period of 7:00 to 19:00, and dark period of 19:00 to 7:00 until the birth of the pups, and after the birth, group breeding was performed with the pups until weaning, and the born mouse pups were used for the test.\n(§5) All the mouse pups were subjected to sex determination on day 3 after birth, and were divided into distilled water administration (later control group) and NMN administration (later NMN group) so that the number of males and females was approximately half in the littermates. […]\n(§6) The body weights of the mouse pups were measured on the day of weaning, and the pups were divided into a total of two groups: a control group (n = 7) and an NMN group (n = 5) only for males. […]\nUsing the separated plasma, the triglyceride concentration was measured by a kit (Triglyceride E-test Wako: No. 432-40201)."}, "[3]": {"test": "Open field test: amount of voluntary activity and average moving speed after weaning", "conditions": "two weeks after weaning, 10 minutes, males and females combined, n = 20 per group, NMN orally days 3 to 21 after birth, vs control group, p < 0.05", "description": "as §1, §2, §3\nTwo weeks after weaning, an open field test was performed on all the individuals to measure the amount of voluntary activity and the average moving speed. […] From the obtained moving image, the amount of voluntary activity (total movement distance) and the average moving speed (average of moving speed excluding immobility state) were calculated using dedicated analysis software (SMART3.0: manufactured by Panlab)."}, "[4]": {"test": "White fat weight measurement (white adipose tissue around the reproductive organ) after weaning", "conditions": "two weeks after weaning; relative weight corrected by body weight; males and females combined, n = 10 per group; NMN orally days 3 to 21 after birth; vs control group, p < 0.01", "description": "as §1, §4, §5\nThe body weights of all the mouse pups were measured on the day of weaning, and the pups were divided into a total of four groups: a control group (n = 7) and an NMN group (n = 5) for males, and a control group (n = 3) and an NMN group (n = 5) also for females. After weaning, the mice were normally bred for 2 weeks and dissected, the white adipose tissue around the reproductive organ was extracted, and the weight thereof was measured. […]"}, "[5]": {"test": "Measurement of blood glucose level in plasma after weaning (Glucose II-test Wako)", "conditions": "two weeks after weaning, males only, NMN n = 5, control n = 7, NMN orally days 3 to 21 after birth, vs control group, p < 0.01", "description": "as §1, §4, §5, §6\nUsing the separated plasma, the blood glucose concentration (blood glucose level) was measured by a kit (Glucose II-test Wako: No. 439-90901)."}},
  "data": [
    {"smiles": "NC(=O)c1ccc[n+]([C@@H]2O[C@H](COP(=O)([O-])O)[C@@H](O)[C@H]2O)c1", "note": "[NMN, β-Nicotinamide mononucleotide]", "values": [
      {"measurement": "grip strength", "setting": "[1]", "value": "high as compared to that in the control group"},
      {"measurement": "blood triglyceride concentration", "setting": "[2]", "value": "tended to be low as compared to that in the control group"},
      {"measurement": "average moving speed", "setting": "[3]; excluding immobility state", "value": "high as compared to those in the control group"},
      {"measurement": "amount of voluntary activity", "setting": "[3]; total movement distance", "value": "high as compared to those in the control group"},
      {"measurement": "white fat weight", "setting": "[4]", "value": "low as compared to that in the control group"},
      {"measurement": "blood glucose levels", "setting": "[5]", "value": "significantly low as compared to those in the control group"}
    ]}
  ]
}
